In one assay the target is E. coli PBP3 (Escherichia coli (strain K12), UniProt P0AD68). Briefly: E. coli PBP3 Bocillin-FL fluorescence polarization competition binding assay. The source says:
To determine the ability of boronic acid-based test PBP inhibitors to bind Penicillin Binding Proteins (PBPs), Bocillin-FL (fluorescently-labeled penicillin V; ThermoFisher Scientific) was used in a fluorescence polarization (FP) competition binding assay to assess inhibitor binding to PBP2, PBP3 or PBP4 from Escherichia coli. PBPs were cloned and purified as described previously (King, D. T, et al., ACS Infectious Diseases 2015, 1, 175-184). To establish assay conditions for competition binding, an enzyme titration/saturation binding experiment was initially performed. Bocillin-FL was prepared at 0.2 μM in a buffer comprised of 50 mM Hepes (pH 8.0), 300 mM NaCl and 5% (v/v) glycerol. Saturation binding was performed by mixing 40 μl of PBP solutions ranging in concentrations from 0-12 μM with 40 μl of the 0.2 μM Bocillin-FL solution, in individual wells of a black 384-well microplate. FP was measured immediately upon mixing (Excitation, 490 nm; Emission, 520 nm; g-factor, 0.96), using a Cytation3 (BioTek) microplate reader and measured continuously for up to 120 minutes. […] Assays (80 μl final volume) were performed with PBPs at a final concentration of 1.5 μM, Bocillin-FL at 0.1 μM and beta-lactam concentrations that ranged from 0-1000 μM. […] Bocillin-FL was added and the FP immediately measured for 60 minutes (90 minutes for PBP2). The beta-lactam potency was reported as the concentration of beta-lactam required to reduce binding of Bocillin-FL by […] (EC50). […] Binding assays for boronic acid PBP inhibitors were performed in an identical fashion.
(In general: Polarisation of emitted light reports the rotation of a fluorescent probe.)

In the next assay the test system is K. pneumoniae 848844. Briefly: microbe, parasite or virus in culture. The class given is cell-based, Klebsiella pneumoniae. Particulars: Klebsiella pneumoniae; K. pneumoniae 848844 producing SHV-11 and KPC-2; read-out: MIC K. pneumoniae 848844. As to the method:
(§1) To determine the ability of test compounds to potentiate the inhibition of the growth of bacterial strains, classic cell based broth microdilution minimum inhibitory concentration (MIC) assays were employed. MIC assays are performed according to CLSI methods except where otherwise noted (CLSI, 2011 and CLSI, 2009). The reference type strain E. coli ATCC 25922, the wild-type parent strain E. coli AG100, the hyper-permeable E. coli 901C and E. coli D22 and the E. coli AG100A strain lacking the acrAB efflux pump encoding genes were used to determine the ability of the PBP inhibitors to penetrate the outer membrane of gram-negative bacteria and inhibit bacterial growth. […] The P. aeruginosa PAO1, P. aeruginosa ATCC 27853 and A. baumannii ATCC 19606, along with the hyper-permeable P. aeruginosa ATCC 35151 and an engineered efflux pump-compromised strain of P. aeruginosa (ΔmexAB-oprM) were used to determine the ability of PBP inhibitors to penetrate the outer membrane of P. aeruginosa and A. baumannii and assess antibacterial activity against these important gram-negative organisms.
(§2) Briefly, cryo-preserved bacterial cultures of challenge strains are streaked for isolation on appropriate agar medium, in this case Mueller Hinton II agar. Following incubation to allow growth of the colonies, plates are sealed with parafilm and stored refrigerated for up to two weeks. For preparation of assay inoculum and to ensure low variability, at least 5 colonies are picked from the agar plates with an inoculating loop and aseptically transferred to a culture tube containing 3 mL of Mueller-Hinton Broth (supplemented with divalent cations to required levels based on Manufacturers' certification). The broth culture is grown for 3-5 hours at 37° C. with shaking at 200 rpm. Meanwhile, 2-fold serial dilutions of test compounds are conducted in a 96 well plate with a final volume of 75 μL per well at 2-fold the final desired concentration. After the dilution plates are set up the growing cultures are then diluted in a cuvette containing MH II broth and the optical density is measured at 600 nm. The Inoculum is diluted such that 75 μL of this culture in Mueller-Hinton Broth results in a starting bacterial concentration of 5×10^5 CFU/mL when added to the dilution plates. The plates are incubated for 16-20 hours at 37° C. The MIC values are read visually as the lowest concentration well with no bacterial growth.

Another assay relates to E. coli 901C. Put plainly: microbe, parasite or virus in culture. The class given is cell-based. To be noted: Escherichia coli; hyper-permeable E. coli 901C, broth microdilution; read-out: MIC E. coli 901C. As to the method:
as §1, §2
A general note: Dilution methods test growth across graded concentrations, often in twofold steps.

In a further assay the test system is E. coli D22. Put plainly: microbe, parasite or virus in culture. The class given is cell-based. To be noted: Escherichia coli; hyper-permeable E. coli D22, broth microdilution; read-out: MIC E. coli D22. The procedure:
as §1, §2

The next assay has as its system K. pneumoniae SI-117. Briefly: microbe, parasite or virus in culture. The class given is cell-based. To be noted: Klebsiella pneumoniae, SI117, read-out: MIC K. pneumoniae SI-117. As to the method:
as §1, §2

The test system of another assay is K. pneumoniae UMM. Put plainly: microbe, parasite or virus in culture. To be noted: Klebsiella pneumoniae; K. pneumoniae UMM producing SHV-5 and KPC-2; read-out: MIC K. pneumoniae UMM. The class given is cell-based. As to the method: as §1, §2
A further assay relates to E. coli AG100A. Briefly: microbe, parasite or virus in culture. The class given is cell-based. Particulars: Escherichia coli, read-out: MIC E. coli AG100A. The procedure:
as §1, §2

Another assay has as its system E. coli AG100. Briefly: Broth microdilution MIC, E. coli AG100 (wild-type parent). The class given is cell-based. To be noted: Escherichia coli; wild-type parent E. coli AG100, broth microdilution; read-out: MIC E. coli AG100. As to the method:
To determine the ability of test compounds to potentiate the inhibition of the growth of bacterial strains, classic cell based broth microdilution minimum inhibitory concentration (MIC) assays were employed.
as §2

The next assay deals with E. coli ATCC 25922. Briefly: Broth microdilution MIC, E. coli ATCC 25922. The format is cell-based. To be noted: Escherichia coli. As to the method: as §1, §2
The mark [1] stands for this setting: ATCC25922, E. coli ATCC 25922, broth microdilution, read-out: MIC E. coli 25922.
The mark [2] stands for this setting: ATCC25922, read-out: MIC E. coli 25922.

Each structure is given as a SMILES string. Read-outs that look alike come from different tables or passages of the source.

Sequence of E. coli PBP3 (P0AD68 whole entry): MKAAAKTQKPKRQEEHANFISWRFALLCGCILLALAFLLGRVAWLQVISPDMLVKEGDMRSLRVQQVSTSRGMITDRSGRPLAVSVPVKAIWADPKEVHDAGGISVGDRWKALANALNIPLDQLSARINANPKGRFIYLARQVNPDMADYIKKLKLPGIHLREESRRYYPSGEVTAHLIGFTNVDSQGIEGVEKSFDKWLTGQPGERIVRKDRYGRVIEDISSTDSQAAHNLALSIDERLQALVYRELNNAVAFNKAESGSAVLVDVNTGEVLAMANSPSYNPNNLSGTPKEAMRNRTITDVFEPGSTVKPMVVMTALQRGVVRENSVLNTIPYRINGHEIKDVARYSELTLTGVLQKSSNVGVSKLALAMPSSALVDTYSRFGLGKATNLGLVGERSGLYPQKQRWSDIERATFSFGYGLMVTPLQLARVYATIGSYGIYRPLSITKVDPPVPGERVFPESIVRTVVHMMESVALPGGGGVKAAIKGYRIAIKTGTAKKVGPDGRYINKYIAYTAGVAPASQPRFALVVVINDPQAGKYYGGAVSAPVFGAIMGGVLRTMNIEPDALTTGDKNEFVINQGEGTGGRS

With `CCN1CCN(C(=O)N[C@@H](C(=O)N[C@H]2Cc3cccc(C(=O)O)c3OB2O)c2ccc(S(N)(=O)=O)c(O)c2)C(=O)C1=O` [Example 167, (R)-3-((R)-2-(4-ethyl-2,3-dioxopiperazine-1-carboxamido)-2-(3-hydroxy-4-sulfamoylphenyl)acetamido)-2-hydroxy-3,4-dihydro-2H-benzo[e][1,2]oxaborinine-8-carboxylic acid], at E. coli PBP3 (fluorescence polarization competition binding with Bocillin-FL, read-out: E. coli K12 PBP3 Potency), the EC50 is less than 30 µM. The MIC in the assay on K. pneumoniae 848844 is more than 128 µg/mL; in the assay with E. coli 901C, less than 0.25 µg/mL; with E. coli D22 it was 2 to 4 µg/mL; in the assay on K. pneumoniae SI-117, more than 128 µg/mL; in the assay on K. pneumoniae UMM, 32 to 64 µg/mL; with E. coli AG100A, 2 to 4 µg/mL. For the same compound, the MIC in the assay with E. coli AG100 and in the assay on E. coli ATCC 25922 (setting [1]) was 32 to 64 µg/mL throughout.

`Nc1nc(C(NS(=O)(=O)c2cccnc2)C(=O)N[C@H]2Cc3cccc(C(=O)O)c3OB2O)cs1` (stereo partly drawn) [Example 7, (3R)-3-(2-(2-aminothiazol-4-yl)-2-(pyridine-3-sulfonamido)acetamido)-2-hydroxy-3,4-dihydro-2H-benzo[e][1,2]oxaborinine-8-carboxylic acid]: the MIC with E. coli 901C was 8 to 16 µg/mL; in the assay on K. pneumoniae UMM it was more than 128 µg/mL; with E. coli AG100A it was 32 to 64 µg/mL; with E. coli AG100, more than 128 µg/mL; in the assay on E. coli ATCC 25922 (setting [2]), more than 128 µg/mL.

Regarding `CCN1CCN(C(=O)NC(C(=O)N[C@H]2Cc3cccc(C(=O)O)c3OB2O)c2ccc(O)c(O)n2)C(=O)C1=O` (stereo partly drawn) [Example 140, (3R)-3-(2-(5,6-dihydroxypyridin-2-yl)-2-(4-ethyl-2,3-dioxopiperazine-1-carboxamido)acetamido)-2-hydroxy-3,4-dihydro-2H-benzo[e][1,2]oxaborinine-8-carboxylic acid], on E. coli PBP3, the EC50 was in the range of 30 to 500 µM. Moreover, the MIC lay in the range of 32 to 64 µg/mL with K. pneumoniae 848844; 0.5 to 1 µg/mL with E. coli 901C; 2 to 4 µg/mL in the assay on E. coli D22; 32 to 64 µg/mL with K. pneumoniae SI-117; 8 to 16 µg/mL with K. pneumoniae UMM; 2 to 4 µg/mL with E. coli AG100A. Besides, the MIC with E. coli AG100 is 32 to 64 µg/mL; with E. coli ATCC 25922 (setting [1]) it was 8 to 16 µg/mL.

Regarding `O=C(O)c1cccc2c1OB(O)[C@@H](NC(=O)C(NC(=O)c1c[nH]ccc1=O)c1ncc(O)cc1F)C2` (stereo partly drawn) [Example 219, (3R)-3-(2-(3-fluoro-5-hydroxypyridin-2-yl)-2-(4-oxo-1,4-dihydropyridine-3-carboxamido)acetamido)-2-hydroxy-3,4-dihydro-2H-benzo[e][1,2]oxaborinine-8-carboxylic acid], the EC50 on E. coli PBP3 is less than 30 µM. In addition, the MIC in the assay on K. pneumoniae 848844 was more than 128 µg/mL; in the assay on E. coli 901C, 2 to 4 µg/mL; with E. coli D22, 8 to 16 µg/mL; in the assay on K. pneumoniae SI-117 it was 32 to 64 µg/mL; in the assay on K. pneumoniae UMM it was 32 to 64 µg/mL; with E. coli AG100A, 8 to 16 µg/mL. In addition, the MIC with E. coli AG100 and in the assay with E. coli ATCC 25922 (setting [2]) was more than 128 µg/mL in each case.

The compound `CCN1CCN(C(=O)N[C@H](C(=O)N[C@H]2Cc3cccc(C(=O)O)c3OB2O)c2ccc(O)c(F)c2)C(=O)C1=O` [Example 155, (R)-3-((S)-2-(4-ethyl-2,3-dioxopiperazine-1-carboxamido)-2-(3-fluoro-4-hydroxyphenyl)acetamido)-2-hydroxy-3,4-dihydro-2H-benzo[e][1,2]oxaborinine-8-carboxylic acid] showed an EC50 at E. coli PBP3 of 30 to 500 µM. Besides, the MIC was more than 128 µg/mL in the assay on K. pneumoniae 848844; 0.5 to 1 µg/mL in the assay with E. coli 901C; 8 to 16 µg/mL in the assay with E. coli D22; more than 128 µg/mL with K. pneumoniae SI-117; more than 128 µg/mL in the assay on K. pneumoniae UMM; 8 to 16 µg/mL in the assay with E. coli AG100A. Moreover, the MIC in the assay on E. coli AG100 and in the assay on E. coli ATCC 25922 (setting [1]) was more than 128 µg/mL each time.

Turning to `CCNC(=O)NC(C(=O)N[C@H]1Cc2cccc(C(=O)O)c2OB1O)c1csc(N)n1` (stereo partly drawn) [Example 6, (3R)-3-(2-(2-aminothiazol-4-yl)-2-(3-ethylureido)acetamido)-2-hydroxy-3,4-dihydro-2H-benzo[e][1,2]oxaborinine-8-carboxylic acid], the MIC is 8 to 16 µg/mL with E. coli 901C; more than 128 µg/mL in the assay on K. pneumoniae UMM; 8 to 16 µg/mL with E. coli AG100A; more than 128 µg/mL with E. coli AG100; more than 128 µg/mL with E. coli ATCC 25922 (setting [2]).

Consider `CCN1CCN(C(=O)NC(C(=O)N[C@H]2Cc3cccc(C(=O)O)c3OB2O)c2ccc(O)c(S(N)(=O)=O)c2)C(=O)C1=O` (stereo partly drawn) [Example 143, (3R)-3-(2-(4-ethyl-2,3-dioxopiperazine-1-carboxamido)-2-(4-hydroxy-3-sulfamoylphenyl)acetamido)-2-hydroxy-3,4-dihydro-2H-benzo[e][1,2]oxaborinine-8-carboxylic acid], for which the MIC in the assay on K. pneumoniae 848844 is more than 128 µg/mL; in the assay on E. coli 901C, less than 0.25 µg/mL; in the assay on E. coli D22 it was 2 to 4 µg/mL; in the assay with K. pneumoniae SI-117, more than 128 µg/mL; with K. pneumoniae UMM, 32 to 64 µg/mL; with E. coli AG100A, 2 to 4 µg/mL. Also, the MIC in the assay with E. coli AG100 and in the assay on E. coli ATCC 25922 (setting [1]) was 32 to 64 µg/mL each time.

Regarding `CCN1CCN(C(=O)NC(C(=O)N[C@H]2Cc3cccc(C(=O)O)c3OB2O)c2ncc(C(=O)NCCO)cc2F)C(=O)C1=O` (stereo partly drawn) [Example 241, (3R)-3-(2-(4-ethyl-2,3-dioxopiperazine-1-carboxamido)-2-(3-fluoro-5-((2-hydroxyethyl)carbamoyl)pyridin-2-yl)acetamido)-2-hydroxy-3,4-dihydro-2H-benzo[e][1,2]oxaborinine-8-carboxylic acid], the MIC was more than 128 µg/mL in the assay with K. pneumoniae 848844; 0.5 to 1 µg/mL in the assay on E. coli 901C; 8 to 16 µg/mL in the assay with E. coli D22; more than 128 µg/mL in the assay with K. pneumoniae SI-117; more than 128 µg/mL in the assay with K. pneumoniae UMM; 8 to 16 µg/mL in the assay with E. coli AG100A. Further, the MIC in the assay on E. coli AG100 and in the assay on E. coli ATCC 25922 (setting [2]) was more than 128 µg/mL in each case.

Consider `CCN1CCN(C(=O)N[C@@H](C)C(=O)N[C@H]2Cc3cccc(C(=O)O)c3OB2O)C(=O)C1=O` [Example 8, (R)-3-((S)-2-(4-Ethyl-2,3-dioxopiperazine-1-carboxamido)propanamido)-2-hydroxy-3,4-dihydro-2H-benzo[e][1,2]oxaborinine-8-carboxylic acid], for which the MIC in the assay on E. coli 901C, with K. pneumoniae SI-117, in the assay with K. pneumoniae UMM, in the assay on E. coli AG100A, with E. coli AG100 and in the assay on E. coli ATCC 25922 (setting [2]) was more than 128 µg/mL throughout.

These data come from US12173018B2, “Penicillin-binding protein inhibitors” (priority 2018, dated 2024).
